# Reference: PMC7997635 (Journal of medicinal chemistry, 2021)
# Experiments:
# [1] = Solubility in NP-40/DMSO buffer of the heme biomineralization assay; format: physicochemical
# [2] = tested on: conversion of hematin (Fe(III)PPIX) to β-hematin; format: biochemical; details: pH 4.8 acetate, NP-40, 37 °C, 5 h; for IC50: read-out: IC50 for inhibition of βH formation
# [3] = tested on: P. falciparum NF54-luc; assay: Bioluminescence relative rate of kill; format: cell-based, Plasmodium falciparum; details: 6 h exposure, 30× to […] EC50, compared with benchmarks
# [4] = tested on: P. falciparum; details: previously characterized with the standard PRR assay ref 34; cited from earlier work
# [5] = tested on: PfNF54 parasites; assay: Parasite survival concentration response; format: cell-based; details: Plasmodium falciparum, read-out: EC50 (survival), parasite survival
# [6] = tested on: Hz formation in NF54 parasites; assay: Cellular heme fractionation assay; format: cell-based; details: Plasmodium falciparum, NF54, 32 h, read-out: EC50 (heme), drug concentration giving 50% response of 'free' heme Fe
# [7] = tested on: P. falciparum 3D7; assay: SYBR Green parasite growth inhibition assay, 72 h; format: cell-based; details: Plasmodium falciparum, 3D7, 72 h, read-out: P. falciparum EC50 Pf3D7, 72 h SYBR Green assay, ABS parasites; mean ± std dev (n) or individual replicates
# [8] = Kinetic solubility in pH 2.0 and pH 6.5 buffers; format: physicochemical
# [9] = tested on: P. berghei liver stage (Pb-Luc sporozoites in HepG2-A16-CD81EGFP cells); assay: P. berghei liver stage assay; format: cell-based, Plasmodium berghei; details: for EC50: read-out: Pb liver stage EC50, two independent replicates
# [10] = tested on: HepG2; assay: HepG2tox assay run with the liver stage assay; format: cell-based, human; details: read-out: HepG2 CC50 (life cycle profiling); two independent replicates
# [11] = HepG2tox assay run with the liver stage assay; format: cell-based, human; details: human, HepG2 cells, HepG2 CC50 (life cycle profiling), two independent replicates
# [12] = tested on: P. falciparum 3D7; assay: Two-color flow cytometry kill rate assay; format: cell-based, Plasmodium falciparum; details: 10× EC50, 24 or 48 h
# [13] = HepG2 in vitro cytotoxicity; format: cell-based; details: human, HepG2 cells
# [14] = tested on: P. falciparum; assay: PRR drug washout kill rate assay; format: cell-based, Plasmodium falciparum; details: 10× EC50, 24 or 48 h
# [15] = tested on: P. falciparum Dd2; assay: SYBR Green parasite growth inhibition assay, 72 h; format: cell-based, Plasmodium falciparum
# [16] = tested on: male stage V gametocytes; assay: Dual gamete formation assay; format: cell-based; details: Plasmodium falciparum, read-out: DGFA male gametocytes inhibition
# [17] = tested on: P. falciparum 3D7; assay: 48 h 3H-hypoxanthine incorporation assay; format: cell-based; details: Plasmodium falciparum, 3D7, 48 h, read-out: EC50, 48 h hypoxanthine assay
# [18] = phosphate buffered saline pH 6.5, pH 6.5
compound,measurement,setting,value
"COc1ccc(Br)cc1CN(C)C(c1ccccc1)c1nnnn1-c1ccccc1C (racemic) [Compound 3, N-(5-bromo-2-methoxybenzyl)-N-methyl-1-phenyl-1-(1-(o-tolyl)-1H-tetrazol-5-yl)methenamine]",solubility,[1],≥ 2000 µM
same,inhibition of βH formation (in words),[2],nearly inactive
same,rate of kill profile in BRRoK assay,[3],fast kill mechanism
"O[C@@H](c1cc(C(F)(F)F)nc2c(C(F)(F)F)cccc12)[C@H]1CCCCN1 (racemic) [MFQ, mefloquine, reference compound]",IC50,[2],≤ 100000 nM
"C[C@@H]1CC[C@H]2[C@@H](C)C(=O)O[C@@H]3O[C@@]4(C)CC[C@@H]1[C@]32OO4 [ART, artemisinin]",rate of kill class of benchmark compound,[4],fast-kill
"O=C1C(O)=C([C@H]2CC[C@H](c3ccc(Cl)cc3)CC2)C(=O)c2ccccc21 [ATQ, atovaquone]",rate of kill class of benchmark compound,[4],slow-kill
"CCN(CC)CCCC(C)Nc1ccnc2cc(Cl)ccc12 (stereo not drawn) [CQ, chloroquine]",EC50,[5],15 nM
same,EC50,[6],58 nM
same,rate of kill class of benchmark compound,[4],fast-kill
"CCC(C(=O)Nc1cccc(Cl)c1)N1C(=O)C(C)N=C(c2ccccc2)c2ccccc21 (stereo not drawn) [Compound 1, N-(3-Chlorophenyl)-2-(3-methyl-2-oxo-5-phenyl-2,3-dihydro-1H-benzo[e][1,4]diazepin-1-yl)butanamide]",rate of kill profile in BRRoK assay,[3],slow kill kinetics
"CC(=O)c1ccc(NC(=O)c2ccc(NC(=O)C3COc4ccccc4O3)cc2)cc1 (stereo not drawn) [Compound 2, N-(4-((4-Acetylphenyl)carbamoyl)phenyl)-2,3-dihydrobenzo[b][1,4]dioxine-2-carboxamide]",rate of kill profile in BRRoK assay,[3],slow kill kinetics
"COc1ccc(C(F)(F)F)cc1CN(C)C(c1cccnc1)c1nnnn1-c1ccccc1C (stereo not drawn) [Compound 6, N-(2-methoxy-5-(trifluoromethyl)benzyl)-N-methyl-1-(pyridin-3-yl)-1-(1-(o-tolyl)-1H-tetrazol-5-yl)methenamine]",EC50,[7],~1000 nM
"COc1ccc(C(F)(F)F)cc1CN(C1CC1)C(c1cccnc1)c1nnnn1-c1ccccc1C (stereo not drawn) [Compound 7, N-(2-methoxy-5-(trifluoromethyl)benzyl)-N-(pyridin-3-yl(1-(o-tolyl)-1H-tetrazol-5-yl)methyl)cyclopropanamine]",solubility kinetic,"[8]; pH 2.0 buffer, pH 2",12.5 to 25 µg/mL
same,solubility kinetic,[8]; [18],1.6 to 3.1 µg/mL
"Cc1ccccc1-n1nnnc1C(c1cccnc1)N(Cc1cccc(C(F)(F)F)c1)C1CC1 (stereo not drawn) [Compound 9, N-(Pyridin-3-yl(1-(o-tolyl)-1H-tetrazol-5-yl)methyl)-N-(3-(trifluoromethyl)benzyl) cyclopropanamine]",solubility,[1],≥ 2000 µM
same,EC50,[9],12000 nM
same,inhibition of βH formation (in words),[2],inhibited βH formation with the same potency as MFQ
same,solubility kinetic,"[8]; pH 2.0 buffer, pH 2",12 to 23 µg/mL
same,solubility kinetic,[8]; [18],1.5 to 2.9 µg/mL
same,CC50,[10],> 17000 nM
same,CC50,[11],19000 nM
"Cc1ccccc1-n1nnnc1C(c1cncnc1)N(Cc1cccc(C(F)(F)F)c1)C1CC1 (stereo not drawn) [Compound 10, N-(Pyrimidin-5-yl(1-(o-tolyl)-1H-tetrazol-5-yl)methyl)-N-(3-(trifluoromethyl)benzyl)cyclopropanamine]",kill kinetics in two-color FACS assay,[12],"kill kinetics similar to CQ, though slower than ART"
same,EC50,[7],320 nM
same,solubility,[1],≥ 2000 µM
same,EC50,[6],1040 nM
same,CC50 at 72 h,[13],> 30000 nM
same,inhibition of βH formation (in words),[2],weaker inhibition
same,kill kinetics in PRR washout assay,[14],"kill kinetics similar to CQ, though slower than ART"
same,solubility kinetic,"[8]; pH 2.0 buffer, pH 2",1.5 to 2.9 µg/mL
same,solubility kinetic,[8]; [18],1.5 to 2.9 µg/mL
same,rate of kill profile in BRRoK assay,[3],fast kill kinetics
"CCCN(C(c1cncnc1)c1nnnn1-c1ccccc1C)C1(c2cccc(C(F)(F)F)c2)CC1 (stereo not drawn) [Compound 20, N-Propyl-N-(pyrimidin-5-yl(1-(o-tolyl)-1H-tetrazol-5-yl)methyl)-1-(3-(trifluoromethyl)phenyl)cyclopropan-1-amine]",selectivity ratio at 72 h,[13],40 to 50
"CCCN(C(c1cccnc1)c1nnnn1-c1ccccc1C)C1(c2cccc(C(F)(F)F)c2)CC1 (stereo not drawn) [Compound 21, N-Propyl-N-(pyridin-3-yl(1-(o-tolyl)-1H-tetrazol-5-yl)methyl)-1-(3-(trifluoromethyl)phenyl)cyclopropan-1-amine]",EC50,[7],~300 nM
same,selectivity ratio at 72 h,[13],40 to 50
"Cc1ccccc1N(C)C(=O)C(c1cccnc1)N(Cc1cccc(C(F)(F)F)c1)C1CC1 (stereo not drawn) [Compound 22, 2-(Cyclopropyl(3-(trifluoromethyl)benzyl)amino)-N-methyl-2-(pyridin-3-yl)-N-(o-tolyl)acetamide]",solubility kinetic,[8]; [18],6.3 to 12.5 µg/mL
"Cc1ccccc1N(C)C(=O)C(c1cncnc1)N(Cc1cccc(C(F)(F)F)c1)C1CC1 (stereo not drawn) [Compound 23, 2-(Cyclopropyl(3-(trifluoromethyl)benzyl)amino)-N-methyl-2-(pyrimidin-5-yl)-N-(o-tolyl)acetamide]",solubility kinetic,"[8]; pH 2.0 buffer, pH 2",11 to 23 µg/mL
same,rate of kill profile in BRRoK assay,[3],fast kill kinetics
"Cc1ccccc1N(C)C(=O)C(c1cccnc1)N(Cc1cccc(OC(F)(F)F)c1)C1CC1 (stereo not drawn) [Compound 26, 2-(Cyclopropyl(3-(trifluoromethoxy)benzyl)amino)-N-methyl-2-(pyridin-3-yl)-N-(o-tolyl)acetamide]","Fold Diff in EC50, Dd2 relative to 3D7",[15],3–5 fold
"Cc1ccccc1N(C)C(=O)C(c1cncnc1)N(Cc1cccc(OC(F)(F)F)c1)C1CC1 (stereo not drawn) [Compound 27, 2-(Cyclopropyl(3-(trifluoromethoxy)benzyl)amino)-N-methyl-2-(pyrimidin-5-yl)-N-(o-tolyl)acetamide]","Fold Diff in EC50, Dd2 relative to 3D7",[15],1.4 – 3.0 fold
"Cc1ccccc1N(C)C(=O)C(c1cccnc1)N(Cc1cc(C(F)(F)F)ccc1F)C1CC1 (stereo not drawn) [Compound 32, 2-(Cyclopropyl(2-fluoro-5-(trifluoromethyl)benzyl)amino)-N-methyl-2-(pyridin-3-yl)-N-(o-tolyl)acetamide]",inhibition at 25 µM,[16],~60%
same,Pb liver stage EC50 relative to P. falciparum blood stage EC50,[9]; fold higher,20 to 30 fold
same,EC50,[9],16000 nM
same,solubility kinetic,[8]; [18],1.5 to 2.9 µg/mL
same,CC50,[11],24000 nM
"O=C(C(c1cccnc1)N(Cc1cccc(C(F)(F)F)c1)C1CC1)N1CCCCC1 (stereo not drawn) [Compound 34, 2-(Cyclopropyl(3-(trifluoromethyl)benzyl)amino)-1-(piperidin-1-yl)-2-(pyridin-3-yl)ethan-1-one]",solubility kinetic,[8]; [18],25 to 50 µg/mL
Cc1cc(Nc2ccc(S(F)(F)(F)(F)F)cc2)n2nc(C(C)(F)F)nc2n1 [DSM265],rate of kill class of benchmark compound,[4],slow-kill
"CCc1nc(N)nc(N)c1-c1ccc(Cl)cc1 [PYR, pyrimethamine]",EC50,[5],33 nM
same,EC50,[17],94 nM
same,EC50,[6],> 100 nM
"CCN(CC)Cc1cc(Nc2ccnc3cc(Cl)ccc23)ccc1O [amodiaquine, reference compound]",IC50,[2],≤ 100000 nM
"COc1ccc2nc3cc(Cl)ccc3c(Nc3cc(CN4CCCC4)c(O)c(CN4CCCC4)c3)c2n1 [pyronaridine, reference compound]",IC50,[2],≤ 100000 nM
